Measured values reported in paper PMC11117721, “A Fast-Binding, Functionally Reversible, COX-2 Radiotracer for CNS PET Imaging” (ACS Central Science, 2024).

Biological target: T1, COX-2 (Rattus norvegicus, UniProt P35355)
T1 construct: endogenous COX-2 expression in naïve rats; from tissue; host or cells: brain of living naive rats
T1 sequence (P35355 18-604): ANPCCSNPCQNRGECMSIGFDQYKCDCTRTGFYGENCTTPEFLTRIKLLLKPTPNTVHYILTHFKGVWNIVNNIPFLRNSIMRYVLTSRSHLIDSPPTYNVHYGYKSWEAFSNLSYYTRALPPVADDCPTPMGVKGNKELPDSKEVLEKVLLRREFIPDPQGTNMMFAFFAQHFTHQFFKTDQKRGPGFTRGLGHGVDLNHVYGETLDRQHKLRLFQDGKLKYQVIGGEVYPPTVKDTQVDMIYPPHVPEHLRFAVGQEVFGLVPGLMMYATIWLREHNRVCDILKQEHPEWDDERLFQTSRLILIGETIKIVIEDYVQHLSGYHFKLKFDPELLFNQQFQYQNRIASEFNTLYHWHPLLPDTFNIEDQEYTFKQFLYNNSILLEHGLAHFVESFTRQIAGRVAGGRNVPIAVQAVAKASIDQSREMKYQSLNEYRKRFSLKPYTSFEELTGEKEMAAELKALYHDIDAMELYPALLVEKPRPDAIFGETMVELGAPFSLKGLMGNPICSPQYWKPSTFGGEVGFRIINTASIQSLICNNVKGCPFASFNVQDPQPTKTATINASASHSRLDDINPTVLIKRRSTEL
Assay: PET neuroimaging of naïve rats
Settings: in vivo PET, result in words
Procedure: deepest would be injected and allowed to perfuse for 15 min until all three injections were completed.
In some experimental groups, mannitol was injected intraperitoneally (IP) or co -administered with the […]
After the surgical procedure was completed, animals were given enough time to recover (generally 28 days post-surgery) to facilitate cellular transduction with the AAV as well as subsequent expression of COX -2 and GFP, before subsequent imaging or IHC interrogation was conducted.
Rodent PET/MRI Acquisition
All PET and MRI experimental procedures were acquired on a 4.7 Tesla PET-MRI scanner using a B-GA20S HP gradient coil with a PET Insert Si 198 (Bruker Biospin, Billerica, MA). Custom 3D-printed cradles were used to secure anesthetized animals in the scanner. Rat and mice experimental groups were imaged separately. For rats, one animal was placed head-prone, and the other was placed tail-prone, aligning their heads in the scanner. For rat blocking experiments celecoxib was formulated in 20% ethanol, 30% polyethylene glycol and 50% saline and diluted appropriately to administer 1 mL/kg. For mice, up to six mice were inserted, two head prone and four tail prone. ParaVision 6 (Bruker) was used to acquire MR images, and ParaVision 360 (Bruker) was used to obtain PET images. […]

- brain uptake: rapid and robust brain uptake
SMILES: [11CH3]S(=O)(=O)c1ccc(-c2cccc(NCc3ccoc3)n2)cc1 [[^11C]BRD1158]
